In US20230295156A1, “CRYSTALLINE FORMS OF 4-[(7-CHLORO-2-METHOXYBENZO[B][1,5]NAPHTHYRIDIN-10-YL)AMINO]-2,6-BIS(PYRROLIDIN-1-YLMETHYL)PHENOL AND SALTS THEREOF” (Merck Patent GmbH, priority 2020, published 2023):
“Also recorded” adds a separate entry of the source.

Key:
[1] = Water Vapour Sorption isotherm (DVS), hygroscopicity acc. to Ph. Eur.; type: physicochemical; details: for Hygroscopicity classification acc. to Ph. Eur. criteria (section 5.11.): based on water uptake difference 40-80% rh; for Water uptake level (Water Vapour Sorption): isotherm 25° C.
Experimental: As used herein, unless stated otherwise, Water Vapour Sorption isotherm measurements are carried out on a DVS-1 or a DVS-Intrinsic system from SMS.

[2] = Miniaturized non-sink dissolution in FaSSIF pH 6.5; type: physicochemical; details: for Dissolution levels in FaSSIF pH 6.5: 37° C.; for Dissolution level in FaSSIF: FaSSIF pH 6.5, 37° C.
Experimental: Approx. 10-20 mg of solid sample were weighed into glass vials. 7 ml of respective FaSSIF (pH 6.5) medium (prewarmed to 37° C.) were added and the suspension was shaken at 450 rpm at 37° C. After 5 min, 15 min, 60 min, and 120 min, 1 ml suspension was withdrawn and filtered through a 0.2 µm syringe filter. Clear filtrate was analysed by HPLC after suitable dilution to measure the amount of API dissolved. To get non-sink conditions 1 ml pre warmed FaSSiF solution was added after sample was withdrawn.
The clear solution was collected in HPLC vials, the filtrate further diluted if necessary and finally HPLC analysis was carried out.
HPLC method for ph-dependent solubility & miniaturised non-sink dissolution: • Column: Chromolith RP-18e 100 - 3 mm • Solvent A: water/formic acid (999:1; v/v) • Solvent B: acetonitrile/formic acid (999:1; v/v) • Injection volume: 5 µL • Column temperature: 37° C. • Wavelength detector: 218 nm

[3] = relative humidity range 40-80% rh

Row | Compound | Hygroscopicity classification acc. to Ph. Eur. criteria (section 5.11.) [1] | Water uptake level (Water Vapour Sorption) [1, 3] | Dissolution level in FaSSIF ([2]; after 15 min) | Dissolution level in FaSSIF ([2]; after 60 min) | Dissolution level in FaSSIF ([2]; after 120 min) | Tendency to undergo hydrate formation upon exposure to elevated RH levels ([1]; up to 90% RH) | also measured
1 | COc1ccc2nc3cc(Cl)ccc3c(Nc3cc(CN4CCCC4)c(O)c(CN4CCCC4)c3)c2n1 [Form VII, 4-[(7-chloro-2-methoxybenzo[b][1,5]naphthyridin-10-yl)amino]-2,6-bis(pyrrolidin-1-ylmethyl)phenol] | non-hygroscopic; also recorded: slightly hygroscopic | < 0.1 wt% | – | – | – | – | Tendency to undergo hydrate formation upon exposure to elevated RH levels ([1]; up to 98% RH): no tendency to undergo hydrate formation
2 | COc1ccc2nc3cc(Cl)ccc3c(Nc3cc(CN4CCCC4)c(O)c(CN4CCCC4)c3)c2n1 [Form I, 4-[(7-chloro-2-methoxybenzo[b][1,5]naphthyridin-10-yl)amino]-2,6-bis(pyrrolidin-1-ylmethyl)phenol] | hygroscopic | 2.4 wt% | approx. 0.56 mg/mL | approx. 0.55 mg/mL | approx. 0.54 mg/mL | – | Dissolution levels in FaSSIF pH 6.5 ([2]; 5 min, listed as Tosylate salt Form I): 547.9 µg/mL; Dissolution levels in FaSSIF pH 6.5 ([2]; 15 min, listed as Tosylate salt Form I): 557.9 µg/mL; Dissolution levels in FaSSIF pH 6.5 ([2]; 60 min, listed as Tosylate salt Form I): 552.8 µg/mL; Dissolution levels in FaSSIF pH 6.5 ([2]; 120 min, listed as Tosylate salt Form I): 537.7 µg/mL
3 | COc1ccc2nc3cc(Cl)ccc3c(Nc3cc(CN4CCCC4)c(O)c(CN4CCCC4)c3)c2n1 [Form IV, 4-[(7-chloro-2-methoxybenzo[b][1,5]naphthyridin-10-yl)amino]-2,6-bis(pyrrolidin-1-ylmethyl)phenol] | slightly hygroscopic | 0.6 wt% | approx. 0.17 mg/mL | approx. 0.56 mg/mL | approx. 0.82 mg/mL | no tendency to undergo hydrate formation | Dissolution levels in FaSSIF pH 6.5 ([2]; 5 min, listed as Napsylate salt Form IV): 116.6 µg/mL; Dissolution levels in FaSSIF pH 6.5 ([2]; 15 min, listed as Napsylate salt Form IV): 209.0 µg/mL; Dissolution levels in FaSSIF pH 6.5 ([2]; 60 min, listed as Napsylate salt Form IV): 488.8 µg/mL; Dissolution levels in FaSSIF pH 6.5 ([2]; 120 min, listed as Napsylate salt Form IV): 630.0 µg/mL
4 | COc1ccc2nc3cc(Cl)ccc3c(Nc3cc(CN4CCCC4)c(O)c(CN4CCCC4)c3)c2n1 [Form V, 4-[(7-chloro-2-methoxybenzo[b][1,5]naphthyridin-10-yl)amino]-2,6-bis(pyrrolidin-1-ylmethyl)phenol] | slightly hygroscopic; also recorded: non-hygroscopic | 0.6 wt% | approx. 0.17 mg/mL | approx. 0.56 mg/mL | approx. 0.82 mg/mL | no tendency to undergo hydrate formation | Dissolution levels in FaSSIF pH 6.5 ([2]; 5 min, listed as Napsylate salt Form V): 95.2 µg/mL; Dissolution levels in FaSSIF pH 6.5 ([2]; 15 min, listed as Napsylate salt Form V): 171.1 µg/mL; Dissolution levels in FaSSIF pH 6.5 ([2]; 60 min, listed as Napsylate salt Form V): 564.1 µg/mL; Dissolution levels in FaSSIF pH 6.5 ([2]; 120 min, listed as Napsylate salt Form V): 817.6 µg/mL
5 | COc1ccc2nc3cc(Cl)ccc3c(Nc3cc(CN4CCCC4)c(O)c(CN4CCCC4)c3)c2n1 [Tetraphosphate form, 4-[(7-chloro-2-methoxybenzo[b][1,5]naphthyridin-10-yl)amino]-2,6-bis(pyrrolidin-1-ylmethyl)phenol tetraphosphate, reference compound] | hygroscopic | > 4.9 wt% | approx. 0.50 mg/mL | approx. 0.50 mg/mL | approx. 0.49 mg/mL | – | Dissolution levels in FaSSIF pH 6.5 ([2]; 5 min, listed as Pyronaridine (tetraphosphate salt, prior art form)): 501.4 µg/mL; Dissolution levels in FaSSIF pH 6.5 ([2]; 15 min, listed as Pyronaridine (tetraphosphate salt, prior art form)): 501.9 µg/mL; Dissolution levels in FaSSIF pH 6.5 ([2]; 60 min, listed as Pyronaridine (tetraphosphate salt, prior art form)): 501.3 µg/mL; Dissolution levels in FaSSIF pH 6.5 ([2]; 120 min, listed as Pyronaridine (tetraphosphate salt, prior art form)): 491.3 µg/mL; Hygroscopicity classification acc. to Ph. Eur. criteria (section 5.11.) ([1]; listed as pyronaridine): hygroscopic
6 | COc1ccc2nc3cc(Cl)ccc3c(Nc3cc(CN4CCCC4)c(O)c(CN4CCCC4)c3)c2n1 [Form III, 4-[(7-chloro-2-methoxybenzo[b][1,5]naphthyridin-10-yl)amino]-2,6-bis(pyrrolidin-1-ylmethyl)phenol] | slightly hygroscopic | 1.5 wt% | approx. 0.46 mg/mL | approx. 0.48 mg/mL | approx. 0.47 mg/mL | no tendency to undergo hydrate formation | Dissolution levels in FaSSIF pH 6.5 ([2]; 5 min, listed as Edisylate salt Form III): 406.7 µg/mL; Dissolution levels in FaSSIF pH 6.5 ([2]; 15 min, listed as Edisylate salt Form III): 462.7 µg/mL; Dissolution levels in FaSSIF pH 6.5 ([2]; 60 min, listed as Edisylate salt Form III): 483.3 µg/mL; Dissolution levels in FaSSIF pH 6.5 ([2]; 120 min, listed as Edisylate salt Form III): 469.7 µg/mL
7 | COc1ccc2nc3cc(Cl)ccc3c(Nc3cc(CN4CCCC4)c(O)c(CN4CCCC4)c3)c2n1 [Form VI, 4-[(7-chloro-2-methoxybenzo[b][1,5]naphthyridin-10-yl)amino]-2,6-bis(pyrrolidin-1-ylmethyl)phenol] | non-hygroscopic | < 0.1 wt% | – | – | – | – | Tendency to undergo hydrate formation upon exposure to elevated RH levels ([1]; up to 98% RH): no tendency to undergo hydrate formation
8 | COc1ccc2nc3cc(Cl)ccc3c(Nc3cc(CN4CCCC4)c(O)c(CN4CCCC4)c3)c2n1 [Form II, 4-[(7-chloro-2-methoxybenzo[b][1,5]naphthyridin-10-yl)amino]-2,6-bis(pyrrolidin-1-ylmethyl)phenol] | slightly hygroscopic | – | approx. 0.45 mg/mL | approx. 0.44 mg/mL | approx. 0.44 mg/mL | – | Dissolution levels in FaSSIF pH 6.5 ([2]; 5 min, listed as Besylate salt Form II): 432.8 µg/mL; Dissolution levels in FaSSIF pH 6.5 ([2]; 15 min, listed as Besylate salt Form II): 447.0 µg/mL; Dissolution levels in FaSSIF pH 6.5 ([2]; 60 min, listed as Besylate salt Form II): 440.1 µg/mL; Dissolution levels in FaSSIF pH 6.5 ([2]; 120 min, listed as Besylate salt Form II): 444.5 µg/mL; Water uptake level (Water Vapour Sorption) ([1]; relative humidity range 40-90% rh): 1.4 wt%
